Tests used:
Format in all cases: cell-based, human
[1] = test system: SH-SY5Y cells; assay: Inhibition of intracellular [Ca2+] influx (Fura-2-AM fluorescence); settings: hydrogen peroxide-induced, 30 minutes pretreatment
Experimental: The incubator was maintained at a temperature of 37° C., and a mixed gas of 95% air and 5% CO2 was continuously supplied thereto to provide suitable conditions for cell culture. The cells were cultured in a 6-well plate or a 96-well plate at each of densities of 1×10^6 and 2×10^4 cells/well 24 hours before the experiment. […] Sulfuretin was used in ethanol and used at a final concentration of 0.1% or less.
In order to measure inhibitory effects on intracellular [Ca^2+] influx caused by oxidative stress, cells were labeled with Fura-2-AM fluorescence, and quantitative analysis was carried out using a fluorescence meter. Specifically, 10 μl of 5 μM Fura-2-AM was added to each well of the 6-well plate (in which the cells have been cultured) and then allowed to react for 30 minutes. Herein, Fura-2-AM in the incubator was covered with a silver foil such that it would not be exposed to light. After completion of the incubation, the plate was pretreated with sulfuretin for 30 minutes, and then reacted with hydrogen peroxide for 30 minutes to induce the intracellular influx of [Ca^2+]. Then, the cells that reacted with the Fura-2-AM fluorescent substance were washed twice with cold HEPES and detached with HEPES. Then, the cells were centrifuged at 400 g for 3 minutes. The supernatant was removed carefully, stirred weakly with 0.5 ml of HEPES buffer, and then 150 μl was dispensed into each well of a fresh 96-well plate. The fluorescence of the sample dispensed into the fresh 96-well plate was measured at an excitation wavelength of […] and an emission wavelength of 520 nm using a fluorescence meter (Perkinelmer, USA).
The measured value was substituted into the following equation to calculate intracellular [Ca^2+] nM: […]

[2] = test system: β-CTF; assay: Western blot, β-CTF level; settings: Swedish APP mutant SH-SY5Y cells; sulfuretin 2.5, 5, 10 and 20 μM for 24 h; dose-dependent (p<0.001)
Experimental: (§1) For the experiments shown in FIGS. 11 to 13, SH-SY5Y and stable swedish APP mutant SH-SY5Y cells were grown in DMEM supplemented with 10% heat-inactivated FBS and 0.1% penicillin/streptomycin at 37° C. in a humidified atmosphere of 5% CO2 and 95% air. Cells were fed every three days and sub-cultured once they reached 80-90% confluency in […] cell culture dishes. Amyloid beta25-35 was prepared as a 20 mM stock immediately before use and diluted in PBS to the indicated final concentration. Prior to use, amyloid beta25-35 was dissolved in sterilized distilled water and was aggregated at 37° C. for five days. The test compounds were dissolved in DMSO and the stock solutions were added directly to the culture media to a final concentration of 0.1% (v/v) DMSO.
(§2) SH-SY5Y and stable swedish APP mutant SH-SY5Y cells (1×10^6 cells/well in 6-well plates) were incubated at 37° C. with or without 20 μM amyloid beta 25-35 for 6 or 24 h, with or without sulfuretin pretreatment, and then washed and harvested with ice-cold PBS and centrifuged at 400×g for 3 minutes. […] The protein concentration was determined using a protein assay kit (Thermo Scientific). […] Protein bands were quantified by densitometric analysis using Image Gauge 4.0 software (Fujifilm, Stamford, Conn., USA). […]

[3] = test system: Tau; assay: Western blot, amyloid beta25-35-induced hyperphosphorylation of Tau; settings: SH-SY5Y cells; pretreatment with sulfuretin at 20 μM; 20 μM amyloid beta25-35 (p<0.01)
[4] = test system: SH-SY5Y cells; assay: MTT assay, amyloid beta25-35-induced cell death; settings: pretreated with sulfuretin at 2.5, 5, 10 and 20 μM for 30 minutes, then 20 μM amyloid beta25-35 for 24 hours (p<0.05 and p<0.001)
Experimental: as §1
First of all, MTT assay was performed to determine the neuroprotective effects of sulfuretin on amyloid beta25-35-induced cell death. […] The dark-blue formazan crystals formed in intact cells were dissolved in DMSO, and the absorbance at 540 nm was measured with a microplate reader (SpectraMax 250, Molecular Device, Sunnyvale, Calif., USA). The results were expressed as the percentage of MIT reduction relative to the absorbance of control cells.

[5] = test system: BACE1; assay: Western blot, BACE1 level; settings: Swedish APP mutant SH-SY5Y cells; sulfuretin 2.5, 5, 10 and 20 μM for 24 h; dose-dependent (p<0.001)
Experimental: as §1, §2

## O=C1/C(=C/c2ccc(O)c(O)c2)Oc2cc(O)ccc21 [sulfuretin]
[1]; sulfuretin 0.1 μg/ml
  intracellular [Ca2+] influx: ≤ 566 nM
[1]; sulfuretin 0.5 μg/ml
  intracellular [Ca2+] influx: ≤ 395 nM
[1]; sulfuretin 1 μg/ml
  intracellular [Ca2+] influx: ≤ 371 nM
[1]; sulfuretin 5 μg/ml
  intracellular [Ca2+] influx: ≤ 243 nM
[2]
  β-CTF level: significantly inhibited
[3]
  amyloid beta25-35-mediated increases in phosphorylation of Tau proteins: significantly inhibited
[4]
  cell viability (MTT reduction): significantly increased
[5]
  BACE1 level: significantly inhibited

Reference: US20150031760A1, “PHARMACEUTICAL COMPOSITION FOR PREVENTING OR TREATING NERVOUS SYSTEM DISORDERS COMPRISING SULFURETIN OR PHARMACEUTICALLY ACCEPTABLE SALT THEREOF” (Research and Business Foundation SUNGKYUNKWAN UNIVERSITY, priority 2010, published 2015)
